Assay: xn = mol fraction of the nth substance listed
Settings: 100 kPa, Liquid; for viscosity: Falling or rolling sphere viscometry; for mass density: Vibrating tube method

CCCCC1CCCCC1 [butylcyclohexane] + CCCCCCC
Settings	mass density, 293.15 K [kg/m3]	mass density, 298.15 K [kg/m3]	mass density, 303.15 K [kg/m3]	mass density, 308.15 K [kg/m3]	mass density, 313.15 K [kg/m3]	viscosity, 293.15 K [mPa·s]	viscosity, 298.15 K [mPa·s]	viscosity, 303.15 K [mPa·s]	viscosity, 308.15 K [mPa·s]	viscosity, 313.15 K [mPa·s]
x1 = 0.0499	691.14	686.96	682.7	678.43	674.27	0.445	0.422	0.404	0.38	0.365
x1 = 0.0991	698.01	693.86	689.65	685.41	681.26	0.477	0.453	0.432	0.408	0.39
x1 = 0.2001	711.59	707.49	703.36	699.21	695.08	0.537	0.51	0.485	0.463	0.44
x1 = 0.2995	724.33	720.29	716.21	712.12	708.05	0.597	0.564	0.533	0.508	0.484
x1 = 0.4006	736.73	732.74	728.7	724.68	720.66	0.665	0.623	0.59	0.56	0.531
x1 = 0.4984	748.17	744.24	740.26	736.29	732.29	0.741	0.694	0.652	0.617	0.584
x1 = 0.6015	759.68	755.81	751.86	747.93	744	0.832	0.776	0.727	0.685	0.646
x1 = 0.6993	770.09	766.25	762.36	758.5	754.58	0.929	0.865	0.808	0.758	0.713
x1 = 0.7999	780.33	776.52	772.68	768.84	764.98	1.042	0.966	0.9	0.842	0.789
x1 = 0.8999	790.07	786.3	782.5	778.7	774.89	1.172	1.083	1.005	0.936	0.875
x1 = 0.9501	794.82	791.06	787.29	783.51	779.72	1.242	1.146	1.059	0.988	0.922
x1 = 1	799.44	795.7	791.95	788.19	784.41	1.296	1.196	1.107	1.027	0.958

CCCCC1CCCCC1 [butylcyclohexane] + CCCCCCCC
Settings	mass density, 293.15 K [kg/m3]	mass density, 298.15 K [kg/m3]	mass density, 303.15 K [kg/m3]	mass density, 308.15 K [kg/m3]	mass density, 313.15 K [kg/m3]	viscosity, 293.15 K [mPa·s]	viscosity, 298.15 K [mPa·s]	viscosity, 303.15 K [mPa·s]	viscosity, 308.15 K [mPa·s]	viscosity, 313.15 K [mPa·s]
x1 = 0.0495	708.15	704.15	700.12	696.06	691.99	0.569	0.547	0.515	0.49	0.464
x1 = 0.1008	713.59	709.59	705.57	701.55	697.5	0.596	0.573	0.54	0.512	0.486
x1 = 0.198	723.69	719.73	715.74	711.75	707.72	0.647	0.619	0.582	0.552	0.524
x1 = 0.3011	734.16	730.24	726.28	722.33	718.33	0.707	0.671	0.63	0.592	0.565
x1 = 0.4008	744.07	740.18	736.26	732.33	728.38	0.771	0.726	0.68	0.638	0.606
x1 = 0.4982	753.55	749.7	745.81	741.91	737.98	0.839	0.784	0.735	0.687	0.652
x1 = 0.5985	763.12	759.29	755.43	751.56	747.67	0.918	0.854	0.799	0.747	0.705
x1 = 0.6997	772.58	768.77	764.94	761.1	757.24	1.004	0.931	0.87	0.814	0.765
x1 = 0.7997	781.72	777.93	774.13	770.31	766.48	1.097	1.014	0.945	0.886	0.83
x1 = 0.9001	790.72	786.95	783.18	779.39	775.59	1.2	1.108	1.029	0.962	0.898
x1 = 0.951	795.17	791.42	787.66	783.88	780.1	1.25	1.156	1.07	0.996	0.93
x1 = 1	799.44	795.7	791.95	788.19	784.41	1.296	1.196	1.107	1.027	0.958

CCCCC1CCCCC1 [butylcyclohexane] + CCCCCCCCC
Settings	mass density, 293.15 K [kg/m3]	mass density, 298.15 K [kg/m3]	mass density, 303.15 K [kg/m3]	mass density, 308.15 K [kg/m3]	mass density, 313.15 K [kg/m3]	viscosity, 293.15 K [mPa·s]	viscosity, 298.15 K [mPa·s]	viscosity, 303.15 K [mPa·s]	viscosity, 308.15 K [mPa·s]	viscosity, 313.15 K [mPa·s]
x1 = 0.0496	721.95	718.07	714.19	710.29	706.36	0.745	0.698	0.659	0.621	0.588
x1 = 0.1008	726.12	722.26	718.38	714.48	710.57	0.764	0.718	0.677	0.638	0.603
x1 = 0.2011	734.29	730.45	726.59	722.71	718.81	0.807	0.754	0.712	0.668	0.63
x1 = 0.3005	742.39	738.56	734.71	730.85	726.97	0.852	0.794	0.745	0.698	0.659
x1 = 0.3997	750.46	746.65	742.81	738.96	735.1	0.901	0.836	0.783	0.733	0.692
x1 = 0.4999	758.62	754.82	751	747.17	743.32	0.956	0.885	0.827	0.774	0.729
x1 = 0.5987	766.67	762.89	759.08	755.26	751.43	1.015	0.94	0.876	0.82	0.77
x1 = 0.7011	775.04	771.26	767.46	763.66	759.85	1.081	1.002	0.934	0.873	0.817
x1 = 0.8001	783.13	779.35	775.57	771.78	767.98	1.152	1.068	0.996	0.927	0.866
x1 = 0.8996	791.25	787.5	783.73	779.96	776.17	1.223	1.135	1.052	0.98	0.915
x1 = 0.9504	795.39	791.64	787.88	784.11	780.33	1.262	1.166	1.08	1.005	0.938
x1 = 1	799.44	795.7	791.95	788.19	784.41	1.296	1.196	1.107	1.027	0.958
